Columns and labels:
Flt3 mRNA = Flt3 mRNA interference by synthesized siRNA, real-time RT-PCR (Example 1); assay type: cell-based, human; details: for inhibition percentage (%) of the relative mRNA expression level (Flt3 mRNA/GAPDH mRNA): siRNA 200 pmol, Oligofectamin, after 24 hours, vs cells transfected without siRNA
Description: Each kind of cell selected from HL-60 cells [Flt3 WT (wild-type) low expressing cells; ATCC CCL-240], EoL-1 cells [Flt3 WT (wild-type) highly expressing cells; ECACC 94042252] and MV4-11 cells [Flt3/ITD highly expressing cells; ATCC CRL-9591] was cultured at 37° C. in an RPMI 1640 medium (manufactured by TAKARA BIO INC.) supplemented with 10% by volume fetal bovine serum (FBS) in the presence of 5% by volume CO2.
Then, the cells (2×10^5 cells/nil) were pre-cultured for 24 hours in a 6-well plate, then recovered, and suspended so as to give a density of 1.5×10^5 cells/ml in Opti-MEM (trade name, manufactured by Invitrogen), and the synthesized siRNA was added to the resulting suspension so as to give a final concentration of 200 pmol. Transfection was carried out using Oligofectamin (trade name, manufactured by Invitrogen) in an amount of 4 μl/reaction, according to an Invitrogen's protocol attached to Oligofectamin (trade name). As a control, the cells were subjected to similar operations without adding the siRNA. The unspecific influence of the siRNA was evaluated using an siRNA to a BCR/ABL chimera mRNA.
Confirmation of RNA interference of the target gene was carried out by determining change in mRNA level by a real-time RT-PCR method as shown below.
Using Oligofectamin (trade name, manufactured by Invitrogen), each kind of cell was transfected with the synthesized siRNA. After 24 hours, whole RNA was extracted from the resulting cells with TRIzol™ reagent (manufactured by Invitrogen), and the resulting product was treated with DNaseI (manufactured by TAKARA BIO INC.). The transfection, the extraction of the whole RNA and the treatment with DNaseI were carried out according to a manufacturer's protocol of the reagent used.
The real-time PCR method was carried out using a Real Time One Step RNA PCR Kit (trade name, manufactured by TAKARA BIO INC.), 100 ng of the resulting RNA as a template and a pair of primers (each 20 pmol), that is, an oligonucleotide having the nucleotide sequence of SEQ ID NO: 13 and an oligonucleotide having the nucleotide sequence of SEQ ID NO: 14. In the real-time RT-PCR method, change in fluorescence based on SYBER Green I (manufactured by TAKARA BIO INC.) was determined with Light Cycler (trade name, manufactured by Roche). The RNA level was standardized by similarly determining GAPDH mRNA with primers set forth in SEQ ID NOs: 15 and 16.
The PCR conditions were as follows: after incubation was carried out at 95° C. for 30 seconds, the reaction was carried out in 40 cycles each consisting of the reaction at 95° C. for 1 second, then at 60° C. for 10 seconds, and at 72° C. for 30 seconds.
The inhibition percentage (%) of the relative mRNA expression level (Flt3 mRNA/GAPDH mRNA) changed by using the synthesized siRNA, as calculated assuming that the relative mRNA expression level (Flt3 mRNA/GAPDH mRNA) of the cells only subjected to each operation of the transfection without adding the synthesized siRNA was 100%, was shown in Table 1.

[1] = tested on: MV4-11 (ITD mutation) cells; experiment: growth inhibition by siRNA3 in combination with kinase inhibitor AG1295, WST-1 (Example 4); assay type: cell-based, human; details: siRNA3 alone, 1.2 μM at electroporation, 0 μM AG1295, 72 hours
Description: The growth inhibitory activity of treatment with a combination of the composition (synthesized siRNA3) of the present invention and a kinase inhibitor on MV4-11 (ITD mutation) cells was examined. The synthesized siRNA3 used was the same as in item (1) of Example 1 above. As the kinase inhibitor, AG1295 (manufactured by CALBIOCHEM) having high specificity to ITD mutation cells was used.
In the same manner as in item (2) of Example 1 above, MV4-11 cells were cultured at 37° C. for 24 hours in a medium obtained by supplementing 10% by volume fetal bovine serum (FBS) to an RPMI 1640 medium (manufactured by TAKARA BIO INC.) (referred to hereinafter as a culture medium) in the presence of 5% by volume CO2. Then, the MV4-11 cells (1×10^6 cells/ml) suspended in Opti-MEM (trade name, manufactured by Invitrogen) were transferred to a cuvette (manufactured by BIO RAD; gap of 4 mm), and siRNA3 was added to the cuvette so as to give a final concentration of 1.2 μM. Then, the cuvette was set in Gene Pulser Xcell (trade name, manufactured by BIO RAD) and thereafter pulsed with electric field intensity of 650 V/cm for 25 msec. Then, the suspension of the cells in the cuvette was added to, and suspended in, a 4-fold excess volume of the culture medium and dispensed onto a 96-well plate so as to give an amount of 100 μl/well. […]
4 mM AG1295 (dissolved in DMSO) was diluted with the above-mentioned culture medium to prepare AG1295 dilutions at a concentration of 10 μM, 6 μM and 0 μM (0.25% by volume DMSO) and added so as to give an amount of 100 μl/well to the 96-well plate prepared in step (2) above and cultured at 37° C. in the presence of 5% by volume CO2. Seventy-two hours after the culture was initiated, the growth activity of the cells was determined using Premix WST-1 reagent (trade name, manufactured by TAKARA BIO INC.) according to a manufacturer's protocol. Each experiment was carried out with n=6, and the mean was determined. The relative growth ratio (%) to the growth ability of the cells transfected with the control siRNA/0 μM AG1295 was determined. […]

[2] = MV4-11 (ITD mutation-highly expressing)

For “siRNA3: siRNA to juxtamembrane region (Flt3/JMD region) (target SEQ ID NO: 7); sense SEQ ID NO: 8, antisense SEQ ID NO: 9 (sense UAUGAAUAUGAUCUCAAAUTT; antisense AUUUGAGAUCAUAUUCAUATT; chemistry not given here)”, the “Relative ratio of inhibition defining RNA interference effect in EoL1 as 1” value (Flt3 mRNA; EoL1 (WT-highly expressing), the reference itself) was “(1)”, the “inhibition percentage (%) of the relative mRNA expression level (Flt3 mRNA/GAPDH mRNA)” value (Flt3 mRNA; EoL1 (WT-highly expressing)) was 63% and the “selective inhibition of Flt3 mRNA expression relative to the inhibition ratio in the Flt3 low expressing cells” value (Flt3 mRNA; Flt3 highly expressing cells vs Flt3 low expressing cells) was at least 1.6 fold. For the same substance, the “inhibition of Flt3 mRNA expression relative to the cells without using an siRNA” value (Flt3 mRNA; Flt3 highly expressing cells, regardless of the presence or absence of ITD mutation) was 65%, the “inhibition percentage (%) of the relative mRNA expression level (Flt3 mRNA/GAPDH mRNA)” value (Flt3 mRNA; HL60 (WT-low expressing)) was 38% and the “Relative ratio of inhibition defining RNA interference effect in EoL1 as 1” value (Flt3 mRNA; [2]) was “(1)”. For the same substance, the “inhibition percentage (%) of the relative mRNA expression level (Flt3 mRNA/GAPDH mRNA)” value (Flt3 mRNA; [2]) was 65% and the “growth inhibition as compared with the cells transfected with the control siRNA/0 μM AG1295” value [1] was 83.7%.

From patent US8138159B2, “Composition for inhibiting function of human Flt3” (Takara Bio Inc., priority 2003, dated 2012)
